From patent US6562866B1 (priority 1998, dated 2003)

Columns and labels:
[1] = Chemical analysis of blood of rabbits fed 1% cholesterol diets; assay type: in vivo, New Zealand White rabbits; settings: 6 weeks; for lowering of total plasma cholesterol level as compared to the comparative group: 0.1% in 1% cholesterol diet
Procedure: (§1) 24 three-month-old New Zealand White rabbits (Yeonam Horticulture and Animal Husbandry College, Korea), each weighing about 2.5 to 2.6 kg, were raised under a condition of temperature 20±2° C., relative humidity 55±5%, and photoperiod 12L/12D. […] RC4 diet comprises 7.6% moisture, 22.8% crude protein, 2.8% crude fat, 8.8% crude ash, 14.4% crude cellulose and 43.6% soluble nitrogen-free substances. Rutin and quercetin were purchased from Sigma Co. (St. Louis, Mo.).
The rabbits were fed for 6 weeks while being allowed free access to the diets and water.
After six weeks, the rabbits were anesthetized with an intramuscular injection of ketamine (50 mg/kg) in the femoral region and sacrificed. A blood sample was taken from the heart of each rabbit, allowed to stand for 2 hours and centrifuged at 3,000 rpm for 15 minutes and the supernatant serum was separated and stored in a freezer before use.
The chemical analysis of blood was carried out by employing a blood chemical analyzer (CIBA Corning 550 Express, USA) to determine the changes in GOT, GPT, γ-GTP, total cholesterol and triglyceride levels.

[2] = test system: liver cells around the central vein; test: Microscopic grading of abnormal fat-containing cells in the liver of cholesterol-fed rabbits; assay type: in vivo, New Zealand White rabbits; settings: 1% cholesterol plus 1 mg/kg Lovastatin or 0.1% rutin
Procedure: as §1, with “substances.” for “substances. Rutin and quercetin were purchased from Sigma Co. (St. Louis, Mo.).”

[3] = test system: main artery fatty streak / arterial endothelium; test: Analysis for fatty streak in the main artery of cholesterol-fed rabbits; assay type: in vivo, New Zealand White rabbits; settings: for A: Proportion (%) of fatty streak region to the total arterial area: 1% cholesterol diet plus 0.1% rutin or quercetin or 1 mg/kg Lovastatin, 6 weeks, Oil Red O staining
Procedure: as §1, with “substances.” for “substances. Rutin and quercetin were purchased from Sigma Co. (St. Louis, Mo.).”
The chest of each of the rabbits sacrificed in Step 2 was incised. The downward portion of the main artery from the site 1 cm above the aortic valve was cut out in a length of about 5 cm and the fat surrounding the main artery was removed. The main artery was incised in the middle along the longitudinal axis and pinned to a dish. The moist artery was photographed and, then, the staining of fatty streaks was carried out in accordance with the method of Esper, E., et al. (J. Lab. Clin. Med., 121, 103-110 (1993)) as follows.
A part of the incised main artery was washed three times with anhydrous propylene glycol for 2 min and stained for 30 min. with a saturated solution of Oil Red O (ORO, Sigma Co.) dissolved in propylene glycol. Thereafter, the artery was washed twice with 85% propylene glycol for 3 min. to remove remaining staining solution and, then washed with physiological saline. The artery was photographed and the photograph was traced. The area of stained region (fatty streak region) was determined with an image analyzer (LEICA, Q-600, Germany) and its proportion (%) to the total arterial area was calculated.

HMG-CoA reductase = biological target: T1, HMG-CoA reductase (Rattus norvegicus, UniProt P51639); test: HMG-CoA reductase activity assay on liver microsomes of the fed rats; assay type: biochemical; settings: liver microsomes of rats fed 0.1% test substance in 1% cholesterol diet, versus control group
T1 construct: the supernatant was ultracentrifuged at 100,000×g for 60 minutes to obtain microsomal precipitates; from tissue; host or cells: liver microsomes of the fed rats
T1 sequence (P51639 1-887): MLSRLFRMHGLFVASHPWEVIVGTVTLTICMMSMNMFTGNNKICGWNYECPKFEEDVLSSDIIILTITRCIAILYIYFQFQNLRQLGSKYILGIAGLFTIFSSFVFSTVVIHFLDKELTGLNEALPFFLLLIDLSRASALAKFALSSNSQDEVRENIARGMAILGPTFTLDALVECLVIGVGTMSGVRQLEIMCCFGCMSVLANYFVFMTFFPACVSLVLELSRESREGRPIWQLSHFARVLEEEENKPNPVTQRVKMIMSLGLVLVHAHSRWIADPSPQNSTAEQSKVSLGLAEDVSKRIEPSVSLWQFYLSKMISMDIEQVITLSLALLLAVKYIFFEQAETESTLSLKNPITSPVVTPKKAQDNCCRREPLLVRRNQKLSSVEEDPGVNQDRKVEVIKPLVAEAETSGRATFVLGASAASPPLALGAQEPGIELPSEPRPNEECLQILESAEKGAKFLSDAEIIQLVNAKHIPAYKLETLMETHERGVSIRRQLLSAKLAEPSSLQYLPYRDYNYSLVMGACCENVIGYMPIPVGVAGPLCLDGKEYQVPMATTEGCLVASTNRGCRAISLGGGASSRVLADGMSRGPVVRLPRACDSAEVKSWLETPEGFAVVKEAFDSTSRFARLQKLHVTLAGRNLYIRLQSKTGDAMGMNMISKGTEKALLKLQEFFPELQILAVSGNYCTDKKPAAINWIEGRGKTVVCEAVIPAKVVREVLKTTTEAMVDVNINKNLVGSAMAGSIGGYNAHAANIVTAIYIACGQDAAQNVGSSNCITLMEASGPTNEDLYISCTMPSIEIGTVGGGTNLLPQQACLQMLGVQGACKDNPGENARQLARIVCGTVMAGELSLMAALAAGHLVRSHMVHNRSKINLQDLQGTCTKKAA
Procedure: In order to determine the activity of HMG-COA reductase, Hulcher's method was employed after some modification (see J. Lipid Res., 14, 625-641(1973)). In this method, the concentration of the coenzyme-A (CoA-SH), which is produced when HMG-CoA is reduced to a mevalonate salt by the action of HMG-CoA reductase, is determined by spectroscopy and the activity of HMG-CoA reductas e is calculated therefrom.
3g of liver tissue taken from each group of rats of Example 2 was washed successively with 100 ml of a cold saline (0.15M NaCl) and 100 ml of a cold buffer solution A (0.1M triethanolamine, HCl/0.2M EDTA/2 mM dithiothreitol (DTT)). The cold buffer solution A was added to the liver tissue in an amount of 2 ml per 1 g of the liver tissue and the mixture was homogenized with a homogenizer. The homogenate was centrifuged at 15,000×g for 15 minutes, and then, the supernatant was ultracentrifuged at 100,000×g for 60 minutes to obtain microsomal precipitates. The precipitates thus obtained was washed with a cold buffer solution A and kept in a 1.5 ml tube at −70° C. […]
Then, the reactant was mixed with 20 μl of DTNB buffer solution (3mM DTNB/0.1M triethanolamine/0.2M EDTA, pH 7.4) and the absorbance of the mixture was determined at 412 nm to calculate the amount of CoA-SH (activity of HMG-CoA reductase activity).

[4] = Plasma total cholesterol, HDL-cholesterol and neutral lipid in rats fed high-cholesterol diets; assay type: in vivo, Sprague-Dawley rats; settings: six weeks
Procedure: 30 three-week-old white Sprague-Dawley rats (Taihan laboratory animal center, Korea), each weighing about 90 to 110 g, were evenly divided into three dietary groups by a randomized block design.
The rats were allowed to feed freely on the specified diet together with water for six weeks, the ingestion amount was recorded daily and the,rats were weighed every 7 days, and then the record was analyzed.
The rats of the dietary groups obtained in Step 1 were sacrificed and blood samples were taken therefrom. The blood was allowed to stand for 2 hours and centrifuged at 3,000 rpm for 15 minutes and the supernatant was separated and stored in a deep freezer before use. The chemical analysis of blood was carried out by employing a blood chemical analyzer (CIBA Corning 550 Express, USA) to determine the changes in total cholesterol, HDL-cholesterol and triglyceride levels.

ACAT = ACAT assay on liver microsomes of the fed rats; assay type: biochemical; settings: liver microsomes of rats fed 0.1% test substance in 1% cholesterol diet, versus control group
Procedure: 1 g each of the livers taken from each group of rats of Example 2 was homogenized in 5 ml of homogenization medium (0.1 M KH2PO4, pH 7.4, 0.1 mM EDTA and 10 mM β-mercaptoethanol). The homogenate was centrifuged at 3,000×g for 15 min. at 4° C. and the supernatant thus obtained was centrifuged at 15,000×g for 15 min. at 4° C. to obtain a supernatant. The supernatant was put into an ultracentrifuge tube (Beckman) and centrifuged at 100,000×g for 1 hour at 4° C. to obtain microsomal pellets, which were then suspended in 3 ml of the homogenization medium and centrifuged at 100,000×g for 1 hour at 4° C. The pellets thus obtained were suspended in 1 ml of the homogenization medium. The protein concentration of the resulting suspension was determined by Lowry's method and then adjusted to 4 to 8 mg/ml. The resulting suspension was stored in a deep freezer (Biofreezer, Forma Scientific Inc.). […]
200 μl of the resulting supernatant was put in a scintillation bottle and 4 ml of scintillation fluid (Lumac) was added thereto. The mixture was assayed for radioactivity with 1450 Microbeta liquid scintillation counter (Wallacoy, Finland). ACAT activity was calculated as picomoles of cholesteryl oleate synthesized per min. per mg protein (pmoles/min/mg protein).

ICR mice = test: Toxicity of orally administered rutin (single oral dose, 10 day observation)
Procedure: 12 seven-week-old, specific pathogen-free ICR […] mice, six female mice each weighing about 25 to 29 g and six male mice each weighing about 34 to 38 g, were kept under an environment of 22±1° C., 55±5% relative humidity and 12L/12D photoperiod. Fodder (Cheiljedang Co., mouse and rat fodder) and water were sterilized and fed to the mice.
Further, on the 10th day, the mice were sacrificed and the internal organs were visually examined.

[5] = Administration of rutin capsules to humans, plasma lipid metabolism; assay type: in vivo, human; settings: two men, daily oral dose of lomg/kg as capsule, 60 days, before vs after
Procedure: The plasma cholesterol and neutral lipid (triglyceride) contents were determined before and after the administration.

[6] = 1% cholesterol diet plus 0.1% rutin or quercetin or 1 mg/kg Lovastatin
[7] = 1% cholesterol diet plus 0.1% test substance

Structure (SMILES)	TG (triglyceride) [1, 6] [mg/dL]	Total-C (total cholesterol) [1, 6] [mg/dL]	A: Proportion (%) of fatty streak region to the total arterial area [3] [%]	lowering of total plasma cholesterol level as compared to the comparative group [1] [%]	Inhibition of HMG-CoA reductase activity (%) (HMG-CoA reductase)	reduction of neutral lipid content compared with control group ([4]; 0.1% in 1% cholesterol diet) [%]	reduction of total plasma cholesterol level compared with control group ([4]; 0.1% in 1% cholesterol diet) [%]	HDL-C (HDL-cholesterol) [4, 7] [mg/dL]	TG (triglyceride) [4, 7] [mg/dL]	also measured
CC[C@H](C)C(=O)O[C@H]1C[C@@H](C)C=C2C=C[C@H](C)[C@H](CC[C@@H]3C[C@@H](O)CC(=O)O3)[C@H]21 [Lovastatin ®, Lovastatin, reference compound]	65.6	1209.5	5							microscopic features of the liver (FIGS. 2B, 2C) [2]: many cells containing excessive fat; layer of macrophage-lipid complex on the arterial endothelium (FIGS. 1B, 1C) ([3]; 1% cholesterol plus 1 mg/kg Lovastatin or 0.1% rutin): no or very thin layers
O=c1c(O)c(-c2ccc(O)c(O)c2)oc2cc(O)cc(O)c12 [Quercetin, quercetin]	30.0	820.0	8	30	30	17	30	41 ± 3	81 ± 4	increase of HDL-C/Total-C ratio compared with control group ([4]; 0.1% in 1% cholesterol diet): 54%; HDL-C/Total-C ratio (row head is a formula, MATH:00001) [4, 7]: 43; Total-C (total cholesterol) [4, 7]: 95 ± 5 mg/dL; % Inhibition on ACAT activity (ACAT): 20%
C[C@@H]1O[C@@H](OC[C@H]2O[C@@H](Oc3c(-c4ccc(O)c(O)c4)oc4cc(O)cc(O)c4c3=O)[C@H](O)[C@@H](O)[C@@H]2O)[C@H](O)[C@H](O)[C@H]1O [Rutin]	35.3	798.2	10	30	40	20	21	36 ± 2	78 ± 3	GOT [1, 6]: 87.0 IU/l; GPT [1, 6]: 33.9 IU/l; γ-GTP [1, 6]: 1.92 IU/l; survival at day 10 (ICR mice; mice, single oral dose of 1,000 mg/kg): All the mice were alive; pathological abnormality at autopsy (ICR mice; mice, single oral dose of 1,000 mg/kg, day 10): did not develop any pathological abnormality; toxicity (ICR mice; mouse, in vivo, po, 160 mg/kg): no toxicity; reduction of plasma cholesterol content [5]: 25%; reduction of plasma neutral lipid (triglyceride) content [5]: 20%
